In patent US9539275B2, “Melanogenesis effect of saponins of gynostemma pentaphyllum” (Hong Kong Baptist University, priority 2014, dated 2017):

Experiments:
Assay type in all cases: cell-based, Mouse
[1] = tested on: B16 cells; test: MTT cell viability assay in B16 cells; details: H89 up to 5 μM, 48 hours
Procedure: (§1) Cell viabilities were determined using the MTT assay. Briefly, cells were seeded in 96-well plates (1×10^3 cells/well) and allowed to adhere at 37° C. for 24 hours. Various concentrations of drugs were then added. After 48 hours incubation, 20 μl of MTT solution (2.5 mg/ml in PBS) was added to each well and cells were incubated at 37° C. for 4 hours. Following medium removal, 100 μl of DMSO were added to each well and the plates were gently shaken for 5 minutes. Optical absorbance was determined at 570 nm with a microplate spectrophotometer (BD Bioscience, USA). Absorbance of cells without treatment was regarded as 100% of cell survival. Each treatment was performed in triplicate and each experiment was repeated three times.

[2] = tested on: B16F10 cells; test: MTT cell viability assay in B16F10 cells; details: H89 up to 5 μM, 48 hours
Procedure: as §1

[3] = tested on: B16 cells; test: Measurement of cellular melanin contents in B16 cells; details: 5 μM H89 with GpS 50-150 μg/ml, 48 hours
Procedure: (§2) Cells were seeded in a 60 mm dish (2×10^5 cells/dish) and allowed to adhere at 37° C. for 24 hours. After adding test samples, cells were incubated for 48 hours and then washed with PBS and lysed in 120 μl of 1 M NaOH followed by 10 minutes of heating at 100° C. to solubilize the melanin. Each lysate (100 μl) was added into a well of a 96-well microplate, and the absorbance was determined at 475 nm with a microplate spectrophotometer (BD Bioscience, USA). The protein concentration of each sample was determined by DC Protein Assay (BIO-RAD, USA). Each experiment was repeated three times. The intracellular melanin amount/protein amount was shown as percentage values. Each percentage value of the drug-treated cells was calculated with respect to that of control cells.

[4] = tested on: B16F10 cells; test: Measurement of cellular melanin contents in B16F10 cells; details: 5 μM H89 with GpS 50-100 μg/ml, 48 hours
Procedure: as §2

[5] = tested on: tyrosinase; test: Tyrosinase activity assay in B16 cells; details: 5 μM H89 with GpS 50-150 μg/ml, 48 hours
Procedure: (§3) Cells were seeded in 96-well plates (3×10^3 cells/well) and allowed to adhere at 37° C. for 24 hours. Test samples were then added to individual wells. After 48 hours incubation, cells were washed with ice-cold PBS and 100 μl of 0.1% Triton X-100 lysis buffer were added into each well and lysed at −80° C. for 30 minutes. After freezing and thawing, 100 μl of freshly prepared substrate solution (0.1% L-DOPA) were added into a well on a 96-well plate. Following 2 hours incubation, the absorbance was determined at 475 nm with a microplate spectrophotometer (BD Bioscience, USA). Each percentage value of the drug-treated cells was calculated with respect to that of control cells. Each treatment was repeated three times.

[6] = tested on: tyrosinase; test: Tyrosinase activity assay in B16F10 cells; details: 5 μM H89 with GpS 50-100 μg/ml, 48 hours
Procedure: as §3

[7] = tested on: CREB; test: Western blotting of p-CREB and CREB in B16 cells; details: 5 μM H89 in GpS-treated cells
Procedure: (§4) Cells were collected and total protein lysates were extracted with RIPA lysis buffer [50 mM Tris-Cl, 1% v/v NP-40, 0.35% w/v sodium-deoxycholate, 150 mM NaCl, 1 mM EDTA, 1 mM EGTA, 1 mM phenylmethylsulfonyl fluoride (PMSF), 1 mM NaF, 1 mM Na3VO4, pH adjusted to 7.4] containing a protease inhibitor cocktail (Roche, Germany) for 30 minutes on ice. After centrifugation at 20,800×g for 15 minutes at 4° C., the supernatant was collected and regarded as total cell lysates.
(§5) Protein concentration was determined by DC Protein Assay (Bio Rad, USA). A standard curve was created by bovine serum albumin (BSA) concentration 0, 0.375, 0.75 and 1.5 μg/μl for the determination of the absolute protein concentration. Then, the mixture of reagent A and reagent S (50:1) was mixed with 5 μl of protein lysate. Then 200 μl of reagent B were added and mixed with 10 minutes incubation at room temperature. Finally, the absorbance was determined at 700 nm with a microplate spectrophotometer (BD Bioscience, USA). […]
(§6) Membranes were blocked for 30 minutes with 3% Bovine Serum Albumin in TBST buffer composed of 50 mM Tris (pH 7.6), 150 mM NaCl and 0.1% Tween-20 and incubated with the primary antibody overnight at 4° C. GADPH was used as loading control and was detected using an anti-GADPH polyclonal antibody (Santa cruz Biotechnology). […]

[8] = tested on: CREB; test: Western blotting of p-CREB and CREB in B16F10 cells; details: 5 μM H89 in GpS-treated cells
Procedure: as §4, §5, §6

[9] = tested on: B16 cells; test: Colour of culture medium (extracellular melanin) and cell pellets, B16 cells
Procedure: (§7) The PKA signaling pathway is known to take part in regulating melanogenic events. […] To further investigate the involvement of the PKA pathway in the induction of the melanogenic effect of GpS in B16 and B6F10 cells, a PKA inhibitor, H89, is employed. […] Cells are treated with GpS in the presence or absence of H89 inhibitor. […] H89 treatment effectively lightens the color of the culture medium as well as the cell pellets.

[10] = tested on: B16F10 cells; test: Colour of culture medium (extracellular melanin) and cell pellets, B16F10 cells
Procedure: as §7

[11] = co-treated with 5 μM H89 and GpS, compared with GpS-treated cells

O=S(=O)(NCCNC/C=C/c1ccc(Br)cc1)c1cccc2cnccc12 [H89]
cytotoxicity (MTT) [1]: no cytotoxicity | cytotoxicity (MTT) [2]: no cytotoxicity | GpS-induced increment of melanin content [3]: significantly attenuated | GpS-induced increment of melanin content [4]: significantly attenuated | GpS-induced increment of cellular tyrosinase activity [5]: significantly attenuated | GpS-induced increment of cellular tyrosinase activity [6]: significantly attenuated | GpS-induced p-CREB expression [7]: significantly attenuates | total CREB expression [7]: without significant influence | GpS-induced p-CREB expression [8]: significantly attenuates | total CREB expression [8]: without significant influence | colour of cell pellets [9, 11]: lighter in color | secretion of melanin induced by GpS ([9]; co-treatment with H89): attenuated | colour of cell pellets [10, 11]: lighter in color | secretion of melanin induced by GpS ([10]; co-treatment with H89): attenuated
